Assays:
[1] = test system: BRAFV600E/K mutant advanced or malignant melanoma; settings: cited from earlier work
[2] = 4 hours after 0.5 mg/kg injection (FIG. 1C)
[3] = test system: primary melanomas from patients; assay: xenograft assay, digitoxin and/or GSK1120212; assay type: in vivo, NSG mice; settings: 0.5 mg/kg/day each agent by oral gavage; melanomas from multiple patients, with and without BRAF mutations
Protocol: Melanoma cells were injected subcutaneously in the right flanks of immunocompromised NSG mice. When tumors became palpable, mice were randomized to four different treatments. […] Control mice received vehicle only (200 μl 0.5% promethylcellulose, 0.2% Tween80 and 5% DMSO per day). Tumors were measured every 2-3 days with calipers.
In these experiments, metastatic melanoma cells were injected subcutaneously in the right flanks of immunocompromised NSG mice. When tumors became palpable, mice were randomized to four different treatments. […] Control mice received vehicle only (200 μl 0.5% promethylcellulose, 0.2% Tween80 and 5% DMSO per day). Tumors were measured every 2-3 days with calipers and bioluminescence imaging was performed when the diameter of the tumors in vehicle treated mice reached 2 cm.

[4] = human, in vivo; cited from earlier work
[5] = human, in vivo; cited from earlier work; remark: listed apart in the source

Q: For `CC(=O)Nc1cccc(-n2c(=O)n(C3CC3)c(=O)c3c(Nc4ccc(I)cc4F)n(C)c(=O)c(C)c32)c1` [Trametinib], which chorioretinopathy ([1]; MEKi class effect) is on record?
A: < 1%

Q: What about the decreased ejection fraction ([1]; MEKi class effect) of the same compound?
A: 7%

Q: What about the “Grade 3 hypertension” value ([1]; Trametinib arm) of the same compound?
A: 12%

Q: What about the “Grade 3 rash” value ([1]; Trametinib arm) of the same compound?
A: 7%

Q: Which results are given for `C[C@H]1O[C@@H](O[C@H]2[C@@H](O)C[C@H](O[C@H]3[C@@H](O)C[C@H](O[C@H]4CC[C@@]5(C)[C@H](CC[C@@H]6[C@@H]5CC[C@]5(C)[C@@H](C7=CC(=O)OC7)CC[C@]65O)C4)O[C@@H]3C)O[C@@H]2C)C[C@H](O)[C@@H]1O` [digitoxin]?
A: doses in the plasma of mice [2]: fell within the therapeutic range in humans; growth of human melanoma xenografts [3]: slowed the growth

Q: What does the source list for `C[C@H]1O[C@@H](O[C@H]2[C@@H](O)C[C@H](O[C@H]3[C@@H](O)C[C@H](O[C@H]4CC[C@@]5(C)[C@H](CC[C@@H]6[C@@H]5C[C@@H](O)[C@]5(C)[C@@H](C7=CC(=O)OC7)CC[C@]65O)C4)O[C@@H]3C)O[C@@H]2C)C[C@H](O)[C@@H]1O` [digoxin]?
A: half-life [4]: about 36 hours; frequency of common adverse effects (loss of appetite, nausea, vomiting, diarrhea etc.) [5]: ≥ 1 % of patients; plasma concentration at which adverse effects are rare [5]: < 0.8 ng/mL

— US9572828B2, “Treatment for melanoma” (The Board of Regents of the University of Texas System, priority 2013, dated 2017)
